Source: the NIST ThermoML archive (doi:10.1021/je060271a)

Conditions: 323.16 K, Liquid, Vibrating tube method

CCCCCC(=O)OCC(COC(=O)CCCCC)(COC(=O)CCCCC)COC(=O)CCCCC [pentaerythritol tetrahexanoate]
Conditions | mass density [kg/m3]
24638 kPa | 989
24665 kPa | 988.9
24693 kPa | 988.9
24716 kPa | 988.9
24744 kPa | 989
24772 kPa | 989
24795 kPa | 988.9
24822 kPa | 989
24849 kPa | 989
24876 kPa | 989.1
24905 kPa | 989
24928 kPa | 989.2
24956 kPa | 989.1
24984 kPa | 989.2
25012 kPa | 989.1
25040 kPa | 989.2
25063 kPa | 989.1
25092 kPa | 989.2
25120 kPa | 989.4
25148 kPa | 989.3
25172 kPa | 989.1
25200 kPa | 989.2
25228 kPa | 989.4
25257 kPa | 989.3
25286 kPa | 989.2
25314 kPa | 989.3
25339 kPa | 989.4
25368 kPa | 989.4
25397 kPa | 989.3
25422 kPa | 989.4
25450 kPa | 989.4
25480 kPa | 989.3
25509 kPa | 989.4
26056 kPa | 989.7
26083 kPa | 989.7
26111 kPa | 989.8
26138 kPa | 989.8
26161 kPa | 989.8
26189 kPa | 989.8
26217 kPa | 989.8
26244 kPa | 989.9
26266 kPa | 989.9
26294 kPa | 989.9
26321 kPa | 989.9
26349 kPa | 989.9
26377 kPa | 989.9
26405 kPa | 990
26428 kPa | 990
26456 kPa | 990
26485 kPa | 990
26516 kPa | 990
26539 kPa | 990.1
26567 kPa | 990.1
26596 kPa | 990.2
26620 kPa | 990.1
26648 kPa | 990.1
26677 kPa | 990.1
26706 kPa | 990.2
26734 kPa | 990.2
27187 kPa | 990.3
27218 kPa | 990.5
27243 kPa | 990.5
27273 kPa | 990.4
27304 kPa | 990.6
27334 kPa | 990.6
27359 kPa | 990.6
27390 kPa | 990.6
27420 kPa | 990.5
27451 kPa | 990.6
27481 kPa | 990.7
27507 kPa | 990.6
27538 kPa | 990.7
27569 kPa | 990.7
27601 kPa | 990.7
27627 kPa | 990.7
27659 kPa | 990.8
27690 kPa | 990.8
27722 kPa | 990.8
27748 kPa | 990.8
27781 kPa | 990.7
27814 kPa | 990.9
27846 kPa | 990.8
27871 kPa | 990.8
27898 kPa | 991
27926 kPa | 990.9
27954 kPa | 990.9
27978 kPa | 991
28006 kPa | 990.8
28034 kPa | 990.9
28308 kPa | 991.1
28332 kPa | 991.2
28361 kPa | 991.2
28389 kPa | 991.2
28418 kPa | 991.2
28471 kPa | 991.3
28499 kPa | 991.1
28529 kPa | 991.2
28553 kPa | 991.1
28582 kPa | 991.2
28611 kPa | 991.3
28640 kPa | 991.4
29189 kPa | 991.7
29221 kPa | 991.7
29253 kPa | 991.7
29279 kPa | 991.7
29311 kPa | 991.8
29343 kPa | 991.8
29373 kPa | 991.8
29395 kPa | 991.8
29423 kPa | 991.8
29446 kPa | 991.7
29473 kPa | 991.8
29500 kPa | 991.8
29527 kPa | 991.9
29603 kPa | 991.9
29630 kPa | 991.8
29657 kPa | 992.1
29680 kPa | 992
29707 kPa | 992
29734 kPa | 992
29999 kPa | 992.1
30027 kPa | 992.1
30055 kPa | 992.3
30079 kPa | 992.1
30107 kPa | 992.1
30135 kPa | 992.2
30159 kPa | 992.4
30188 kPa | 992.3
30217 kPa | 992.3
30245 kPa | 992.2
30273 kPa | 992.4
30301 kPa | 992.4
30326 kPa | 992.2
30354 kPa | 992.4
30383 kPa | 992.3
30407 kPa | 992.4
30436 kPa | 992.4
30579 kPa | 992.4
30610 kPa | 992.4
30641 kPa | 992.5
30672 kPa | 992.6
30697 kPa | 992.5
30725 kPa | 992.6
30749 kPa | 992.7
30774 kPa | 992.6
